In PubChem BioAssay AID1259411 (Chemical Carcinogenesis Research Information System (CCRIS), 2018):
Activity calls are given as the source filed them. No rule for the calls is given here.

Tested on: rodent carcinogenicity bioassays, tumor incidence
Assay: CCRIS carcinogenicity studies
In short: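 Archive of carcinogenicity, mutagenicity, tumor promotion and tumor inhibition results drawn from journals, NCI reports and other sources, expert-reviewed; covers 1985-2011 and is no longer updated.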

## CC(C)(C)c1cc(O)ccc1O
Species: MOUSE, Strain/Sex: B6C3F1/FEMALE, Route: ORAL, Dose: 0, 1250, 2500, 5000 PPM IN DIET FOR 105 WK (STUDY DURATION: 105 WK), Dose: 0, 1250, 2500, 5000 PPM IN DIET FOR 105 WK (STUDY DURATION: 105 WK)
  carcinogen call: inactive; negative
Species: MOUSE, Strain/Sex: B6C3F1/MALE, Route: ORAL, Dose: 0, 1250, 2500, 5000 PPM IN DIET FOR 104 WK (STUDY DURATION: 104 WK), Dose: 0, 1250, 2500, 5000 PPM IN DIET FOR 104 WK (STUDY DURATION: 104 WK)
  carcinogen call: inactive; negative
Species: RAT, Strain/Sex: F344/FEMALE, Route: ORAL, Dose: 0, 1250, 2500, 5000 PPM IN DIET FOR 129 WK ADMINISTERED TO RATS ALSO EXPOSED IN UTERO THROUGH MOTHERS THAT RECEIVED THE, Dose: 0, 1250, 2500, 5000 PPM IN DIET FOR 129 WK ADMINISTERED TO RATS ALSO EXPOSED IN UTERO THROUGH MOTHERS THAT RECEIVED THE
  carcinogen call: inactive; negative
Species: RAT, Strain/Sex: F344/FEMALE, Route: ORAL, Dose: 0, 5000 PPM IN DIET FOR 128 WK, CONTROL AND DOSED GROUPS FED AD LIBITUM (STUDY DURATION: 128 WK)
  carcinogen call: inactive; negative
Species: RAT, Strain/Sex: F344/FEMALE, Route: ORAL, Dose: 0, 5000 PPM IN DIET FOR 128 WK, CONTROL GROUP WAS WEIGHT-MATCHED TO DOSED GROUP (STUDY DURATION: 128 WK)
  carcinogen call: inactive; negative
Species: RAT, Strain/Sex: F344/FEMALE, Route: ORAL, Dose: 0, 5000 PPM IN DIET FOR 130 WK, CONTROL GROUP DIET RESTRICTED TO LIMIT WEIGHTS TO 85% OF AD LIBITUM-FED GROUPS (STUDY DU
  carcinogen call: inactive; negative
Species: RAT, Strain/Sex: F344/MALE, Route: ORAL, Dose: 0, 1250, 2500, 5000 PPM IN DIET FOR 123 WK ADMINISTERED TO RATS ALSO EXPOSED IN UTERO THROUGH MOTHERS THAT RECEIVED THE, Dose: 0, 1250, 2500, 5000 PPM IN DIET FOR 123 WK ADMINISTERED TO RATS ALSO EXPOSED IN UTERO THROUGH MOTHERS THAT RECEIVED THE
  carcinogen call: inactive; negative
Species: RAT, Strain/Sex: F344/MALE, Route: ORAL, Dose: 0, 5000 PPM IN DIET FOR 102 WK, CONTROL AND DOSED GROUPS FED AD LIBITUM (STUDY DURATION; 122 WK), Dose: 0, 5000 PPM IN DIET FOR 102 WK, CONTROL AND DOSED GROUPS FED AD LIBITUM (STUDY DURATION; 122 WK)
  carcinogen call: inactive; negative
Species: RAT, Strain/Sex: F344/MALE, Route: ORAL, Dose: 0, 5000 PPM IN DIET FOR 122 WK, CONTROL GROUP WAS WEIGHT-MATCHED TO DOSED GROUP (STUDY DURATION: 122 WK)
  carcinogen call: inactive; negative
Species: RAT, Strain/Sex: F344/MALE, Route: ORAL, Dose: 0, 5000 PPM IN DIET FOR 130 WK, CONTROL GROUP DIET RESTRICTED TO LIMIT WEIGHTS TO 85% OF AD LIBITUM-FED GROUPS (STUDY DU
  carcinogen call: inactive; negative

## Nc1ccc2nc3ccccn3c2n1
Species: MOUSE, Strain/Sex: CDF1/FEMALE, Route: ORAL, Dose: 0, 0.05% IN DIET FOR UP TO 685 D (STUDY DURATION: 685 D), Tumor Site: Type of Lesion: LIVER: HEPATOCELLULAR ADENOMA OR CARCINOMA, BLOOD VESSELS: HEMANGIOENDOTHELIOMA OR HEMANGIOENDOTHELIAL SARCOMA
  carcinogen call: active; positive
Species: MOUSE, Strain/Sex: CDF1/MALE, Route: ORAL, Dose: 0, 0.05% IN DIET FOR UP TO 685 D (STUDY DURATION: 685 D), Tumor Site: Type of Lesion: LIVER: HEPATOCELLULAR ADENOMA OR CARCINOMA, BLOOD VESSELS: HEMANGIOENDOTHELIOMA OR HEMANGIOENDOTHELIAL SARCOMA
  carcinogen call: active; positive
Species: RAT, Strain/Sex: F344/FEMALE, Route: ORAL, Dose: 0, 500 PPM IN DIET (AV DAILY DOSE: 4.9 MG) FOR 24 MO (STUDY DURATION: 104 WK), Tumor Site: Type of Lesion: SMALL INTESTINE: ADENOMA OR ADENOCARCINOMA OR MUCINOUS CARCINOMA, LARGE INTESTINE: ADENOMA OR ADENOCARCINOMA OR MUCINOUS
  carcinogen call: active; positive
Species: RAT, Strain/Sex: F344/MALE, Route: ORAL, Dose: 0, 500 PPM IN DIET (AV DAILY DOSE: 7.5 MG) FOR 24 MO (STUDY DURATION: 104 WK), Tumor Site: Type of Lesion: LIVER: HEPATOCELLULAR CARCINOMA OR ANAPLASTIC HEPATOMA, SMALL INTESTINE: ADENOMA OR ADENOCARCINOMA OR MUCINOUS CARCINOMA
  carcinogen call: active; positive

## O=C(O)CC[N+](=O)[O-]
Species: MOUSE, Strain/Sex: B6C3F1/FEMALE, Route: GAVAGE, Dose: 0, 0.375, 0.75 MG/ANIMAL/DAY FOR 104 WK (STUDY DURATION: 104-105 WK), Dose: 0, 0.375, 0.75 MG/ANIMAL/DAY FOR 104 WK (STUDY DURATION: 104-105 WK)
  carcinogen call: inactive; negative
Species: MOUSE, Strain/Sex: B6C3F1/MALE, Route: GAVAGE, Dose: 0, 0.375, 0.75 MG/ANIMAL/DAY FOR 104 WK (STUDY DURATION: 104-105 WK), Dose: 0, 0.375, 0.75 MG/ANIMAL/DAY FOR 104 WK (STUDY DURATION: 104-105 WK)
  carcinogen call: inactive; negative
Species: RAT, Strain/Sex: F344/FEMALE, Route: GAVAGE, Dose: 0, 0.6, 1.2 MG/ANIMAL/DAY FOR 110 WK (STUDY DURATION: 111 WK), Dose: 0, 0.6, 1.2 MG/ANIMAL/DAY FOR 110 WK (STUDY DURATION: 111 WK)
  carcinogen call: inactive; negative
Species: RAT, Strain/Sex: F344/MALE, Route: GAVAGE, Dose: 0, 0.425, 0.85 MG/ANIMAL/DAY FOR 110 WK (STUDY DURATION: 111 WK), Dose: 0, 0.425, 0.85 MG/ANIMAL/DAY FOR 110 WK (STUDY DURATION: 111 WK), Tumor Site: Type of Lesion: LIVER: HEPATOCELLULAR NEOPLASM, PANCREAS: ISLET CELL ADENOMA
  carcinogen call: equivocal

## ClCOCc1ccc(COCCl)cc1
Species: MOUSE, Strain/Sex: ICR/HA SWISS/FEMALE, Route: DERMAL, Dose: 0, 0.3 MG IN 0.1 ML CYCLOHEXANE 3/WK FOR 502 D (STUDY DURATION: 570 D), Tumor Site: Type of Lesion: SKIN: PAPILLOMA, SKIN: CARCINOMA
  carcinogen call: active; positive
Species: MOUSE, Strain/Sex: ICR/HA SWISS/FEMALE, Route: SUBCUTANEOUS, Dose: 0, 0.3 MG IN 0.05 ML TRICAPRYLIN 1/WK FOR 569 D (STUDY DURATION: 570 D), Tumor Site: Type of Lesion: INJECTION SITE: SARCOMA
  carcinogen call: active; positive

## CNC(=O)Oc1cccc(N=CN(C)C)c1
Species: Mouse, Strain/Sex: Crl:CD-1(ICR) BR/Female (50/Group), Route: Oral, Dose: 0, 10, 50, 500 ppm of 95.7% formetanate HCl in diet for 104 wk, study duration 104 wk, Dose: 0, 10, 50, 500 ppm of 95.7% formetanate HCl in diet for 104 wk, study duration 104 wk
  carcinogen call: inactive; negative
Species: Mouse, Strain/Sex: Crl:CD-1(ICR) BR/Male (50/Group), Route: Oral, Dose: 0, 10, 50, 500 ppm of 95.7% formetanate HCl in diet for 104 wk, study duration 104 wk, Dose: 0, 10, 50, 500 ppm of 95.7% formetanate HCl in diet for 104 wk, study duration 104 wk
  carcinogen call: inactive; negative
Species: Rat, Strain/Sex: Crl:COBS CD(SD)BR/Female (50/Group), Route: Oral, Dose: 0, 10, 50, 250 ppm of 95.1-96% formetanate HCl in diet for 104 wk, study duration 104 wk, Dose: 0, 10, 50, 250 ppm of 95.1-96% formetanate HCl in diet for 104 wk, study duration 104 wk
  carcinogen call: inactive; negative
Species: Rat, Strain/Sex: Crl:COBS CD(SD)BR/Male (50/Group), Route: Oral, Dose: 0, 10, 50, 250 ppm of 95.1-96% formetanate HCl in diet for 104 wk, study duration 104 wk, Dose: 0, 10, 50, 250 ppm of 95.1-96% formetanate HCl in diet for 104 wk, study duration 104 wk
  carcinogen call: inactive; negative

## O=c1[nH]c(=O)n(O)c2nc[nH]c12
Species: RAT, Strain/Sex: SPRAGUE-DAWLEY/FEMALE, Route: SUBCUTANEOUS, Dose: 3-7 MG/SUSPENDED IN CARBOXYMETHYLCELLULOSE IN SALINE 1/WK FOR 22-26 WK, Tumor Site: Type of Lesion: INJECTION SITE, LIVER: HYPERPLASTIC NODULE OR HEPATOMA
  carcinogen call: active; positive
Species: RAT, Strain/Sex: SPRAGUE-DAWLEY/MALE, Route: SUBCUTANEOUS, Dose: 0, 0.1, 1.0 MG IN CARBOXYMETHYLCELLULOSE 3/WK FOR 8 WK, Dose: 0, 0.1, 1.0 MG IN CARBOXYMETHYLCELLULOSE 3/WK FOR 8 WK, Tumor Site: Type of Lesion: INJECTION SITE: SARCOMA, FIBROMA
  carcinogen call: active; positive
Species: RAT, Strain/Sex: WISTAR/MALE, FEMALE, Route: SUBCUTANEOUS, Dose: 3-7 MG/SUSPENDED IN CARBOXYMETHYLCELLULOSE IN SALINE 1/WK FOR 22-26 WK, Tumor Site: Type of Lesion: INJECTION SITE, LIVER: HYPERPLASTIC NODULE OR HEPATOMA
  carcinogen call: active; positive
Species: RAT, Strain/Sex: WISTAR/MALE, Route: ORAL, Dose: 7 MG IN CARBOXYMETHYLCELLULOSE IN SALINE 1/WK FOR 22 WK, Tumor Site: Type of Lesion: LIVER
  carcinogen call: active; positive
Species: RAT, Strain/Sex: WISTAR/MALE, Route: SUBCUTANEOUS, Dose: 0, 0.1, 1.0 MG IN CARBOXYMETHYLCELLULOSE 3/WK FOR 8 WK, Dose: 0, 0.1, 1.0 MG IN CARBOXYMETHYLCELLULOSE 3/WK FOR 8 WK, Tumor Site: Type of Lesion: INJECTION SITE: SARCOMA, FIBROMA
  carcinogen call: active; positive
